Target: human F508del-CFTR (Homo sapiens, UniProt P13569, DEL508-508)
Assay: F508del-CFTR cell surface expression (corrector activity), DiscoveRx ß-galactosidase complementation chemiluminescence assay in recombinant U2OS cell line;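 further: U2OS cells co-expressing ProLink-tagged F508del-CFTR and a membrane-anchored enzyme acceptor, where more surface CFTR restores β-galactosidase activity measured by chemiluminescence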
Conditions: U2OS cells, 16h compound incubation; for EC50: EC50, F508del-CFTR cell surface expression, geomean of several measurements; for Emax: U2OS, in relation to the Emax of the corrector lumacaftor (=100%), arithmetic mean

Sequence of human F508del-CFTR (P13569 with tags, fused parts or gaps DEL508-508): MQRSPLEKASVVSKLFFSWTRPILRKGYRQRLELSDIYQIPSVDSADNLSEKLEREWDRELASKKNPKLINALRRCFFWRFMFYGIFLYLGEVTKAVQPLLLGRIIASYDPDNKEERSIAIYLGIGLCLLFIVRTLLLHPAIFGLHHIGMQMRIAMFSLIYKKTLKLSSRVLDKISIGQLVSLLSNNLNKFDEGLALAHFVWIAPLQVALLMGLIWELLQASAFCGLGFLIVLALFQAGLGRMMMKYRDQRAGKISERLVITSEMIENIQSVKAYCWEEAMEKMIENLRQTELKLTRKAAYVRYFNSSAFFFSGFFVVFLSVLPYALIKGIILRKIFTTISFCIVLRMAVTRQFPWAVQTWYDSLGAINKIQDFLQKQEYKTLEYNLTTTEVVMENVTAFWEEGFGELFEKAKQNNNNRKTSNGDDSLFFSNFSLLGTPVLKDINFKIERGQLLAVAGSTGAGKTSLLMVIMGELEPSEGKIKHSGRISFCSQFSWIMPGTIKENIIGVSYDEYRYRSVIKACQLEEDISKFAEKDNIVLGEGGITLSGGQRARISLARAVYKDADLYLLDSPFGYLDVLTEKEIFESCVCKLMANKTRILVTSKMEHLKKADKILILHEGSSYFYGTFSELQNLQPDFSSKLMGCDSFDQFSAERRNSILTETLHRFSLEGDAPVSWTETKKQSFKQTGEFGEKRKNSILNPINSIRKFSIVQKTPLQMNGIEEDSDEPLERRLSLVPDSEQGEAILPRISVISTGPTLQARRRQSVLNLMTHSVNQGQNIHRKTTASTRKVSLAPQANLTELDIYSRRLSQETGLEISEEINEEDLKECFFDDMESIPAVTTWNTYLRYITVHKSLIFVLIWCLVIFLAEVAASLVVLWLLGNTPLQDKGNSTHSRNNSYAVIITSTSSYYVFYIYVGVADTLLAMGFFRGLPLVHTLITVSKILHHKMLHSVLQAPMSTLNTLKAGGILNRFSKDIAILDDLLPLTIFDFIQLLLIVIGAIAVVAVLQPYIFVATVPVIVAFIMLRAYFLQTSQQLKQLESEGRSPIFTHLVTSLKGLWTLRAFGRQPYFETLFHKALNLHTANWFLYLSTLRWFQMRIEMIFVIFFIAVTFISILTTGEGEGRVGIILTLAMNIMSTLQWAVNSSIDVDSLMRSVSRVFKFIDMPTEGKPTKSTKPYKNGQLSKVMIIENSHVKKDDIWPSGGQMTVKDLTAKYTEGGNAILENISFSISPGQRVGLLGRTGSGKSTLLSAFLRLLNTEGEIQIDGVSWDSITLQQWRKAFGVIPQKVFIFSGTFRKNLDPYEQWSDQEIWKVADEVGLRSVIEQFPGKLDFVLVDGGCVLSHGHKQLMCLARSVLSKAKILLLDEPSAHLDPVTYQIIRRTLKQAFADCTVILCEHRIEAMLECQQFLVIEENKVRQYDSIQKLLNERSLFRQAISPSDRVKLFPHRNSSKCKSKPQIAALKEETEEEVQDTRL

Structure (SMILES)	EC50 [µM]	Emax [%]
CCOCC[C@@H]1C(=O)N[C@H](Cc2ccccc2)COc2cc(C)nc(OC)c2C(=O)N[C@H](C(=O)NCCc2cc(OC)no2)CC(=O)N(C)[C@@H](CC(C)C)C(=O)N1C [Example 877, (3R,6R,9S,13S)-3-benzyl-6-(2-ethoxyethyl)-9-isobutyl-16-methoxy-N-(2-(3-methoxyisoxazol-5-yl)ethyl)-7,10,18-trimethyl-5,8,11,15-tetraoxo-2,3,4,5,6,7,8,9,10,11,12,13,14,15-tetradecahydropyrido[3,4-p][1]oxa[4,7,10,14]tetraazacycloheptadecine-13-carboxamide]	0.186	361
COc1cc(CCNC(=O)[C@@H]2CC(=O)N(C)[C@@H](CC(C)C)C(=O)N(C)[C@H](CC(C)(C)C)C(=O)N[C@H](Cc3ccccc3)COc3cc(C)nc(OC)c3C(=O)N2)on1 [Example 878, (3R,6R,9S,13S)-3-benzyl-9-isobutyl-16-methoxy-N-(2-(3-methoxyisoxazol-5-yl)ethyl)-7,10,18-trimethyl-6-neopentyl-5,8,11,15-tetraoxo-2,3,4,5,6,7,8,9,10,11,12,13,14,15-tetradecahydropyrido[3,4-p][1]oxa[4,7,10,14]tetraazacycloheptadecine-13-carboxamide]	0.027	336
COc1cc(C[C@@H]2C(=O)N[C@H](Cc3ccccc3)COc3ccc4ncc(F)cc4c3C(=O)N[C@H](C(=O)NCCc3noc(C4CC4)n3)CC(=O)N(C)[C@@H](CC(C)C)C(=O)N2C)on1 [Example 879, (3S,7S,10R,13R)-13-benzyl-N-(2-(5-cyclopropyl-1,2,4-oxadiazol-3-yl)ethyl)-20-fluoro-7-isobutyl-10-((3-methoxyisoxazol-5-yl)methyl)-6,9-dimethyl-1,5,8,11-tetraoxo-1,2,3,4,5,6,7,8,9,10,11,12,13,14-tetradecahydro-[1]oxa[4,7,10,14]tetraazacycloheptadecino[16,17-f]quinoline-3-carboxamide]	0.063	360
COc1cc(CCNC(=O)[C@@H]2CC(=O)N(C)[C@@H](CC(C)C)C(=O)N(C)[C@H](Cc3cc(OC)no3)C(=O)N[C@H](Cc3ccccc3)COc3ccc4ncc(F)cc4c3C(=O)N2)on1 [Example 880, (3S,7S,10R,13R)-13-benzyl-20-fluoro-7-isobutyl-N-(2-(3-methoxyisoxazol-5-yl)ethyl)-10-((3-methoxyisoxazol-5-yl)methyl)-6,9-dimethyl-1,5,8,11-tetraoxo-1,2,3,4,5,6,7,8,9,10,11,12,13,14-tetradecahydro-[1]oxa[4,7,10,14]tetraazacycloheptadecino[16,17-f]quinoline-3-carboxamide]	0.059	359
COc1nccc2c1C(=O)N[C@H](C(=O)NCCc1noc(C3CC3)n1)CC(=O)N(C)[C@@H](CC(C)C)C(=O)N(C)[C@H](CCc1nc(C(C)(C)C)no1)C(=O)N[C@H](Cc1ccccc1)CO2 [Example 881, (3R,6R,9S,13S)-3-benzyl-6-(2-(3-(tert-butyl)-1,2,4-oxadiazol-5-yl)ethyl)-N-(2-(5-cyclopropyl-1,2,4-oxadiazol-3-yl)ethyl)-9-isobutyl-16-methoxy-7,10-dimethyl-5,8,11,15-tetraoxo-2,3,4,5,6,7,8,9,10,11,12,13,14,15-tetradecahydropyrido[3,4-p][1]oxa[4,7,10,14]tetraazacycloheptadecine-13-carboxamide]	0.309	337
COc1nccc2c1C(=O)N[C@H](C(=O)NCCc1noc(C3CC3)n1)CC(=O)N(C)[C@@H](CC(C)C)C(=O)N(C)[C@H](Cn1cc(-c3ccccc3)nn1)C(=O)N[C@H](Cc1ccccc1)CO2 [Example 882, (3R,6R,9S,13S)-3-benzyl-N-(2-(5-cyclopropyl-1,2,4-oxadiazol-3-yl)ethyl)-9-isobutyl-16-methoxy-7,10-dimethyl-5,8,11,15-tetraoxo-6-((4-phenyl-1H-1,2,3-triazol-1-yl)methyl)-2,3,4,5,6,7,8,9,10,11,12,13,14,15-tetradecahydropyrido[3,4-p][1]oxa[4,7,10,14]tetraazacycloheptadecine-13-carboxamide]	0.473	367
COc1nccc2c1C(=O)N[C@H](C(=O)NCCc1noc(C3CC3)n1)CC(=O)N(C)[C@@H](CC(C)C)C(=O)N(C)[C@H](CCc1nc(C3CCCC3)no1)C(=O)N[C@H](Cc1ccccc1)CO2 [Example 883, (3R,6R,9S,13S)-3-benzyl-6-(2-(3-cyclopentyl-1,2,4-oxadiazol-5-yl)ethyl)-N-(2-(5-cyclopropyl-1,2,4-oxadiazol-3-yl)ethyl)-9-isobutyl-16-methoxy-7,10-dimethyl-5,8,11,15-tetraoxo-2,3,4,5,6,7,8,9,10,11,12,13,14,15-tetradecahydropyrido[3,4-p][1]oxa[4,7,10,14]tetraazacycloheptadecine-13-carboxamide]	0.111	344
COc1cc(CCNC(=O)[C@@H]2CC(=O)N(C)[C@@H](CC(C)C)C(=O)N(C)[C@H](CCc3nc(C4CCCC4)no3)C(=O)N[C@H](Cc3ccccc3)COc3ccnc(OC)c3C(=O)N2)on1 [Example 884, (3R,6R,9S,13S)-3-benzyl-6-(2-(3-cyclopentyl-1,2,4-oxadiazol-5-yl)ethyl)-9-isobutyl-16-methoxy-N-(2-(3-methoxyisoxazol-5-yl)ethyl)-7,10-dimethyl-5,8,11,15-tetraoxo-2,3,4,5,6,7,8,9,10,11,12,13,14,15-tetradecahydropyrido[3,4-p][1]oxa[4,7,10,14]tetraazacycloheptadecine-13-carboxamide]	0.096	385
CC(C)C[C@H]1C(=O)N(C)[C@H](Cn2cc(-c3ccc(F)cn3)nn2)C(=O)N[C@H](Cc2ccccc2)COc2cnc3ccc(F)cc3c2C(=O)N[C@H](C(=O)NCCc2noc(C3CC3)n2)CC(=O)N1C [Example 885, (3S,7S,10R,13R)-13-benzyl-N-(2-(5-cyclopropyl-1,2,4-oxadiazol-3-yl)ethyl)-20-fluoro-10-((4-(5-fluoropyridin-2-yl)-1H-1,2,3-triazol-1-yl)methyl)-7-isobutyl-6,9-dimethyl-1,5,8,11-tetraoxo-1,2,3,4,5,6,7,8,9,10,11,12,13,14-tetradecahydro-[1]oxa[4,7,10,14]tetraazacycloheptadecino[17,16-c]quinoline-3-carboxamide]	0.078	328
CC(C)C[C@H]1C(=O)N(C)[C@H](Cc2cc(C(C)(C)C)no2)C(=O)N[C@H](Cc2ccccc2)COc2cnc3ccc(F)cc3c2C(=O)N[C@H](C(=O)NCCc2noc(C3CC3)n2)CC(=O)N1C [Example 886, (3S,7S,10R,13R)-13-benzyl-10-((3-(tert-butyl)isoxazol-5-yl)methyl)-N-(2-(5-cyclopropyl-1,2,4-oxadiazol-3-yl)ethyl)-20-fluoro-7-isobutyl-6,9-dimethyl-1,5,8,11-tetraoxo-1,2,3,4,5,6,7,8,9,10,11,12,13,14-tetradecahydro-[1]oxa[4,7,10,14]tetraazacycloheptadecino[17,16-c]quinoline-3-carboxamide]	0.015	359

Source: US20240208992A1, “MACROCYCLES AS CFTR MODULATORS” (Idorsia Pharmaceuticals Ltd, priority 2021, published 2024)
